Measurements as given in article PMC5537699 (ACS Omega, 2017).
Like-named read-outs stand apart in the source and are kept apart here.

Legend:
[1] = biological target: human kidney Na+/K+-ATPase (HKE) (Homo sapiens, UniProt P05023); assay: Na+/K+-ATPase activity assay, purified human kidney enzyme; type: biochemical; conditions: for Ki: read-out: Ki, inhibition of Na+/K+-ATPase activity of HKE-1, HKE-1, 1% DMSO, optimal turnover conditions (Figure 4A)
[2] = biological target: pig kidney Na+/K+-ATPase (PKE) (Sus scrofa, UniProt P05024); assay: Na+/K+-ATPase activity assay, purified pig kidney enzyme; type: biochemical; conditions: for Ki: 1% DMSO, PKE-1 or PKE-2, optimal turnover conditions (Figure 3)
[3] = system: recombinant human kidney enzyme (Na+/K+-ATPase); conditions: ref 14 (Katz et al., their Table 1); cited from earlier work
[4] = nearly constant levels by appropriate dosage regimens; cited from earlier work
[5] = system: purified PKE (pig kidney Na+/K+-ATPase); conditions: ref 11 (Laursen et al., their Figure 3); cited from earlier work
[6] = read-out: Ki, inhibition of Na+/K+-ATPase activity of PKE

Compound: C[C@]12CC[C@H](O)C[C@@]1(O)CC[C@@H]1[C@@H]2CC[C@]2(C)[C@@H](c3ccc(=O)oc3)C[C@H]3O[C@]132 [MBG, marinobufagenin]
- potency relative to ouabain in Na+/K+-ATPase activity assays ([1]; HKE-1 (Figure 4A)): equally potent
- Ki [1]: 1070 ± 40 nM
- Ki [2, 6]: 1500 ± 120 nM
- fold less potent than ouabain by relative binding constants [3]: about 200 fold

Compound: C[C@H]1O[C@@H](O[C@H]2[C@@H](O)C[C@H](O[C@H]3[C@@H](O)C[C@H](O[C@H]4CC[C@@]5(C)[C@H](CC[C@@H]6[C@@H]5C[C@@H](O)[C@]5(C)[C@@H](C7=CC(=O)OC7)CC[C@]65O)C4)O[C@@H]3C)O[C@@H]2C)C[C@H](O)[C@@H]1O [digoxin]
- Ki ([2]; Ki, inhibition of Na+/K+-ATPase activity of PKE): 1950 ± 150 nM
- blood levels when used clinically [4]: 0.64 to 1.15 nM

Compound: C[C@]12C[C@@H](O)[C@H]3[C@@H](CC[C@]4(O)C[C@@H](O)C[C@@H](O)[C@]34CO)[C@@]1(O)CC[C@@H]2C1=CC(=O)OC1 [ouabagenin]
- Ki [1]: 4400 ± 270 nM
- extent of inhibition of Na+/K+-ATPase activity ([2]; PKE (Figure 3)): complete inhibition
- fold less potent than ouabain in Na+/K+-ATPase activity assays ([2]; PKE (Figure 3)): about 3 fold
- Ki [2, 6]: 3070 ± 230 nM
- extent of inhibition of the enzyme [5]: only a partial inhibitor
- fold less potent than ouabain by relative binding constants [5]: about 800 fold

Compound: C[C@@H]1O[C@@H](O[C@H]2C[C@@H](O)[C@]3(CO)[C@H]4[C@H](O)C[C@]5(C)[C@@H](C6=CC(=O)OC6)CC[C@]5(O)[C@@H]4CC[C@]3(O)C2)[C@H](O)[C@H](O)[C@H]1O [ouabain]
- preincubation time sufficient to obtain the maximal inhibitory effect ([2]; PKE-1, incubation times 10–60 min, 0.25–1000 μM): 10 min
- ouabain sensitivity of large-scale PKE preparation versus single kidney PKEs ([2]; large-scale PKE, specific activity 1035 μmol Pi mg–1 h–1, results not shown): not significantly different
